Test [1] addresses T1, B2-receptors in h-CM cells (Homo sapiens, UniProt P30411).
T1 construct: B2-receptor proteins in h-TM, h-CM and h-NPE cells; endogenous in cells; host or cells: human trabecular meshwork (h-TM), human ciliary muscle (h-CM) and human non-pigmented ciliary epithelial (h-NPE) cells
T1 sequence (P30411 1-391): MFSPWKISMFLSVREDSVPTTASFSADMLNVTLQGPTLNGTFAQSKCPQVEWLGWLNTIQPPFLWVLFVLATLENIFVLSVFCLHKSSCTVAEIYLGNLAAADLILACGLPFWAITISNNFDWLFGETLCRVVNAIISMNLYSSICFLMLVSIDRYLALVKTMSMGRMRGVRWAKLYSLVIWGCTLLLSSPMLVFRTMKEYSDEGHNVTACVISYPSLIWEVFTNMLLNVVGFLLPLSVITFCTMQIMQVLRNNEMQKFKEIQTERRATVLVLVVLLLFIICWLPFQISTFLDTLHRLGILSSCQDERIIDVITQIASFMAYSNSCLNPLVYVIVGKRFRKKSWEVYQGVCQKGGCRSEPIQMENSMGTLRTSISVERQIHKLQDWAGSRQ
Put plainly: [Ca2+]i mobilization (FLIPR) in h-CM cells, agonist mode. The class given is cell-based. The settings on record: h-CM cells, mean ± SEM. The method, then: (§1) On the day of the experiment, one vial of FLIPR Calcium Assay Kit dye is re-suspended in 50 mL of a FLIPR buffer consisting of Hank's Balanced Salt Solution (HBSS), 20 mM HEPES, and 2.5 mM probenecid, pH 7.4. Cells are loaded with the calcium-sensitive dye by addition of an equal volume (50 μL) to each well of the 96-well plate and incubated with dye for 1 h at 23° C. After this time, the test compound plate and cell plate are placed in the FLIPR instrument. At the beginning of an experimental run, a signal test is performed to check the basal fluorescence signal from the dye-loaded cells and the uniformity of the signal across the plate. The basal fluorescence is adjusted between 8000-12000 counts by modifying the exposure time, the camera F-stop, or the laser power. Instrument settings for a typical assay are the following: laser power 0.3-0.6 W, camera F-stop F/2, and exposure time 0.4 sec.
(§2) Fluorescence data are collected in real-time at 1.0 sec intervals for the first 60 secs and at 6.0 sec intervals for an additional 120 secs. […] The data are then analyzed using an automated, iterative, sigmoidal curve-fitting computer program to obtain the potency and intrinsic activities of the test agents as previously described (Sharif et al. J. Pharmacol. Exp. Ther. 286: 1094-1102, 1998; Sharif et al. Invest. Ophthalmol. Vis. Sci. 39:2562-2571, 1998; Kelly et al. J. Pharmacol. Exp. Ther. 304: 238-245, 2003). The sources of materials and reagents for such assays can be found in the references cited above.

In test [2] the test system is conscious ocular hypertensive cynomolgus monkey eyes. Kind of test: IOP response in lasered (hypertensive) eyes of conscious cynomolgus monkeys, topical ocular. It is filed as in vivo. To be noted: for % Change in IOP: Table 7, dose = 30 μg. The method, then: Intraocular pressure (IOP) is determined with an Alcon Pneumatonometer (Alcon Laboratories, Inc., Fort Worth, Tex.) after light corneal anesthesia with 0.1% proparacaine. Right eyes are hypertensive as a result of laser trabeculoplasty. After a baseline IOP measurement, test compound is instilled in the right eyes only of 8-10 cynomolgus monkeys. Vehicle is instilled in the right eyes of 5-6 additional animals. Subsequent IOP measurements are taken at 1, 3, and 6 hours. IOP measurements are also taken on left eyes (normotensive and untreated) at each of these time points. The percent change in IOP from baseline is determined for each animal for every IOP measurement (Sharif et al. J. Ocular Pharmacol. Ther. 17: 305-317, 2001; May et al., J Pharmacol Exp Ther. 306: 301-309, 2003; Sharif et al. Invest. Ophthalmol. Vis. Res. 47: 4001-4010, 2006). Group mean and standard error of the mean (SEM) are calculated for each time point. […] In cases where the compound of invention has poor ocular bioavailability, the compound may need to be administered intracamerally or intravitreally in order to observe the IOP-lowering efficacy.
The IOP-lowering effect was slow to develop but significant IOP reduction was observed even 3 hours post-dosing with maximum ocular hypotension observed 16-48 hours post-dosing (Tables 6-8; FIGS. 3b-5).

In test [3] the target is T2, B2-receptors in h-NPE cells (Homo sapiens, UniProt P30411).
T2 construct: B2-receptor proteins in h-TM, h-CM and h-NPE cells; endogenous in cells; host or cells: human trabecular meshwork (h-TM), human ciliary muscle (h-CM) and human non-pigmented ciliary epithelial (h-NPE) cells
T2 sequence (P30411 1-391): T1 sequence (P30411 1-391)
Put plainly: [Ca2+]i mobilization (FLIPR) in h-NPE cells, agonist mode. The settings on record: h-NPE cells, mean ± SEM. It is filed as cell-based. The method, then: as §1, §2

In test [4] the target is T3, B2-receptors in h-TM cells (Homo sapiens, UniProt P30411).
T3 construct: B2-receptor proteins in h-TM, h-CM and h-NPE cells; endogenous in cells; host or cells: human trabecular meshwork (h-TM), human ciliary muscle (h-CM) and human non-pigmented ciliary epithelial (h-NPE) cells
T3 sequence (P30411 1-391): T1 sequence (P30411 1-391)
Kind of test: [Ca2+]i mobilization (FLIPR) in h-TM cells, agonist mode. It is filed as cell-based. To be noted: h-TM cells, mean ± SEM. The procedure:
as §1, §2

In test [5] the target is human cloned B2-receptors (Homo sapiens, UniProt P30411). Put plainly: HTRF-based assay of endogenous IP1 production in CHO cells. The settings on record: CHO cells expressing human cloned B2-receptors, read-out: EC50, production of endogenous IP1 from PI turnover. It is filed as cell-based.
Procedure: The cells are suspended in IP1 stimulation buffer containing Hepes 10 mM, CaCl2 1 mM, MgCl2 0.5 mM, KCl 4.2 mM, NaCl 146 mM, Glucose 5.5 mM, LiCl 50 mM pH 7.4, then distributed in microplates at a density of 40,000 cells/well (B2 receptor assays) or 30,000 cells/well (B1 receptor assays). Test compounds are added to the cells at various concentrations and incubated for 20 min at 37° C. […] Following the 20 min incubation at 37° C., the cells are lysed and the fluorescence acceptor (D2-labeled IP1) and fluorescence donor (anti-IP1 antibody labeled with europium cryptate) are added. After 60 min at room temperature, the fluorescence transfer is measured at λex=337 nm and λem=620 and 665 nm using a microplate reader.
The target of test [6] is T4, BK B2-Receptor in h-NPE cells (Homo sapiens, UniProt P30411).
T4 construct: B2-receptor proteins in h-TM, h-CM and h-NPE cells; endogenous in cells; host or cells: human trabecular meshwork (h-TM), human ciliary muscle (h-CM) and human non-pigmented ciliary epithelial (h-NPE) cells
T4 sequence (P30411 1-391): T1 sequence (P30411 1-391)
Put plainly: Antagonism of FR-190997-induced [Ca2+]i mobilization in h-NPE cells. To be noted: FR-190997 as the agonist, read-out: Antagonist Potency (Ki). The class given is cell-based. The method, then:
as §1, §2

Test [7] concerns the target T5, BK B2-Receptor in h-CM cells (Homo sapiens, UniProt P30411).
T5 construct: B2-receptor proteins in h-TM, h-CM and h-NPE cells; endogenous in cells; host or cells: human trabecular meshwork (h-TM), human ciliary muscle (h-CM) and human non-pigmented ciliary epithelial (h-NPE) cells
Put plainly: Antagonism of FR-190997-induced [Ca2+]i mobilization in h-CM cells. It is filed as cell-based. To be noted: FR-190997 as the agonist, read-out: Antagonist Potency (Ki). The procedure:
as §1, with “Instrument settings for a typical assay are the following: laser power 0.3-0.6 W, camera F-stop F/2, and exposure time 0.4 sec.” left out
Fluorescence data are collected in real-time at 1.0 sec intervals for the first 60 secs and at 6.0 sec intervals for an additional 120 secs. […] The data are then analyzed using an automated, iterative, sigmoidal curve-fitting computer program to obtain the potency and intrinsic activities of the test agents as previously described (Sharif et al. J. Pharmacol. Exp. Ther. 286: 1094-1102, 1998; Sharif et al. Invest. Ophthalmol. Vis. Sci. 39:2562-2571, 1998; Kelly et al. J. Pharmacol. Exp. Ther. 304: 238-245, 2003). […]

In another test the test system is B1-receptor mRNA. Kind of test: Microarray analysis of B1-receptor mRNA in TGFβ2-treated human TM cells. The settings on record: Glaucomatous h-TM Cells, mean ± SEM. The class given is cell-based.
Another test relates to B2-receptor mRNA. Kind of test: Microarray analysis of B2-receptor mRNA in TGFβ2-treated human TM cells. It is filed as cell-based. The settings on record: mean ± SEM.
The mark [8] stands for this setting: read-out: Intrinsic Activity (Emax, % max relative to BK).
The mark [9] stands for this setting: read-out: Potency (EC50), [Ca2+]i mobilization.

Where “and” joins values, the source holds several entries; their conditions need not be identical. Equal entries are not always repeated.

As a reminder, the Emax is the size of the effect at its maximum, as opposed to the concentration needed. What is called EC50 is the concentration at which the effect is half-maximal. The term Ki denotes a dissociation constant, usually derived from enzyme kinetics or from competition with a known ligand.

Take `Cc1cc(OCc2ccccn2)c2cccc(OCc3c(Cl)ccc(N(C)C(=O)CNC(=O)/C=C/c4ccc(/C=C/c5ccncc5)nc4)c3Cl)c2n1` [Compound 1]: the Emax in [1] (setting [8]) came to 96%; in test [3] (setting [8]), 86%; in [4] (HTM, read-out: Intrinsic Activity (Emax, % max relative to BK)), 93%. Further, the EC50 in test [1] (setting [9]) was 237 ± 29 nM; in [3] (setting [9]), 709 ± 54 nM; in test [4] (setting [9]) it was 290 ± 75 nM; in test [5], 38 nM. The “% Change in IOP” value in test [2] (Dose 1/3 hr) was −12.5 ± 3.4%; in test [2] (Dose 1/6 hr), −18.9 ± 6.6%; in test [2] (Dose 2/24 hr), −26.6 ± 5.4%; in test [2] (Dose 2/48 hr), −15.1 ± 3.9%. Besides, the “lowering of IOP” value in test [2] (topical ocular, 0.03-600 μg/eye) is reported as “significant dose-dependent lowering of IOP”.
`Cc1nc2c(OCc3c(Cl)ccc(N(C)C(=O)CNC(=O)/C=C/c4ccc(C(=O)N(C)C)cc4)c3Cl)cccn2c1Br` [FR-167344]: the Ki was 124 nM in test [6]; 45 nM and 71 nM in test [7].
On to `CC(=O)Nc1ccc(/C=C/C(=O)NCC(=O)N(C)c2ccc(Cl)c(COc3cccc4ccc(C)nc34)c2Cl)cn1` [FR-173657], for which the Ki was 439 nM in test [6]; 68 nM and 114 nM in test [7].

B1: TGFβ2: cytokine transforming growth factor-β2 (protein, UniProt P61812 303-414, looked up)
Transforming growth factor …: ALDAAYCFRNVQDNCCLRPLYIDFKRDLGWKWIHEPKGYNANFCAGACPYLWSSDTQHSRVLSLYNTINPEASASPCCVSQDLEPLTILYYIGKTPKIEQLSNMIVKSCKCS
B1: the “Normalized Levels of B1-receptor mRNA (GC-RMA)” value in the test on B1-receptor mRNA (after 1.5 hr) was 1.54 ± 0.09; in the test on B1-receptor mRNA (after 16 hr), 0.53 ± 0.05. Moreover, the “Normalized Levels of B2-receptor mRNA (GC-RMA)” value in the test on B2-receptor mRNA (Glaucomatous h-TM Cells, after 1.5 hr) stood at 0.97 ± 0.06; in the test with B2-receptor mRNA (Glaucomatous h-TM Cells, after 16 hr), 0.24 ± 0.06; in the test with B2-receptor mRNA (Normal h-TM Cells, after 1.5 hr), 0.68 ± 0.05; in the test with B2-receptor mRNA (Normal h-TM Cells, after 16 hr) it was 0.14 ± 0.11.

Source of the values: US8173668B1 (Alcon Research, Ltd., priority 2007, dated 2012).
